Three molecules from patent US6716392B1, “Preservation of liquid biological samples” (The United States of America as represented by the United …, priority 1995, dated 2004) can be followed below.

Where two headings read alike, the source gives them in different places.

Series [1] is described as follows: Stability of spiked APAP and AP in saliva (HPLC). Type of series: physicochemical. The text has this:
Non-invasive estimates of physiological and pharmacokinetic alterations may be obtained by measuring the concentrations of certain compounds and their metabolites in liquid biological samples (e.g., saliva). For example, gastrointestinal activity and the absorption, bioavailability and elimination of acetaininophen (“APAP”) may be assessed by measuring APAP concentrations in liquid biological samples following oral administration of APAP. In addition, hepatic metabolism may be measured indirectly from the clearance of orally administered antipyrine (“AP”) from liquid biological samples. The accuracy of such non-invasive estimates depends, in part, upon the stability of the reference compound or metabolite in the liquid biological sample. Therefore, the effectiveness of a particular preservative may be evaluated by determining the degradation time course for a known quantity of a specific reference compound.
The effectiveness of the preservative of the present invention was evaluated by measuring the stability of APAP and AP in saliva samples stored at −20° C. as compared to saliva samples stored at room temperature and containing sodium benzoate and citric acid in an amount of 0.25% and 0.05% of the sample (weight/volume), respectively (“P1”). Saliva samples were collected from forty subjects, pooled, aliquoted and spiked with APAP (5 or 25 μg/ml) or AP (5 or 50 μg/ml). Duplicate samples were analyzed by high performance liquid chromatography on days 1, 14, 28, 60, 120, 180, 240 and 360 (see Tables 1-4 below).

Series [2] is classed as physicochemical. The conditions noted are these: for storage time over which concentrations in saliva were comparable / preserved: room temperature in the presence of P1 versus −20° C.; for SALIVA STABILITY OF MELATONIN: human. On the procedure: The effectiveness of the preservative of the present invention in maintaining the stability of hormones in liquid biological samples was evaluated by measuring the maintenance of base-line physiological levels of melatonin and cortisol in saliva. Aliquots (non-spiked) of the pooled saliva samples containing base-line physiological levels of melatonin and cortisol were stored −20° C. or at room temperature and containing sodium benzoate and citric acid in an amount of 0.25% and 0.05% of the sample (weight/volume), respectively (“P1”). Duplicate samples were analyzed by radioimmunoassay on days 1, 14, 28, 60, 120, 180, 240 and 360 (see Tables 5 and 6 below).

`CC(=O)Nc1ccc(O)cc1` [APAP, acetaminophen]: the “Saliva Stability (APAP concentration)” value in series [1] (5 μg/ml APAP, No Preservative, −20° C., Day 01) was 5.83 ± 0.08 µg/mL; in series [1] (5 μg/ml APAP, No Preservative, −20° C., Day 14), 6.59 ± 0.61 µg/mL; in series [1] (5 μg/ml APAP, No Preservative, −20° C., Day 28) it was 5.81 ± 0.08 µg/mL; in series [1] (5 μg/ml APAP, No Preservative, −20° C., Day 60), 5.82 ± 0.20 µg/mL; in series [1] (5 μg/ml APAP, No Preservative, −20° C., Day 120), 5.54 ± 0.33 µg/mL; in series [1] (5 μg/ml APAP, No Preservative, −20° C., Day 180), 3.77 ± 0.03 µg/mL. In addition, the “Saliva Stability (APAP concentration)” value in series [1] (5 μg/ml APAP, No Preservative, −20° C., Day 240) was 4.17 ± 0.16 µg/mL; in series [1] (5 μg/ml APAP, No Preservative, −20° C., Day 360), 5.14 ± 0.09 µg/mL; in series [1] (5 μg/ml APAP, P1, RT, Day 01) it was 5.49 ± 0.09 µg/mL; in series [1] (5 μg/ml APAP, P1, RT, Day 14), 5.38 ± 0.14 µg/mL; in series [1] (5 μg/ml APAP, P1, RT, Day 28), 4.83 ± 1.79 µg/mL; in series [1] (5 μg/ml APAP, P1, RT, Day 60) it was 6.89 ± 0.94 µg/mL. Besides, the “Saliva Stability (APAP concentration)” value was 5.40 ± 0.20 µg/mL in series [1] (5 μg/ml APAP, P1, RT, Day 120); 4.37 ± 0.08 µg/mL in series [1] (5 μg/ml APAP, P1, RT, Day 180); 4.29 ± 0.25 µg/mL in series [1] (5 μg/ml APAP, P1, RT, Day 240); 5.31 ± 0.43 µg/mL in series [1] (5 μg/ml APAP, P1, RT, Day 360); 24.88 ± 0.22 µg/mL in series [1] (25 μg/ml APAP, No Preservative, −20° C., Day 01); 25.60 ± 0.41 µg/mL in series [1] (25 μg/ml APAP, No Preservative, −20° C., Day 14). Besides, the “Saliva Stability (APAP concentration)” value in series [1] (25 μg/ml APAP, No Preservative, −20° C., Day 28) worked out at 25.25 ± 0.48 µg/mL; in series [1] (25 μg/ml APAP, No Preservative, −20° C., Day 60) it was 25.02 ± 0.4 µg/mL; in series [1] (25 μg/ml APAP, No Preservative, −20° C., Day 120) it was 25.45 ± 0.49 µg/mL; in series [1] (25 μg/ml APAP, No Preservative, −20° C., Day 180) it was 16.71 ± 0.50 µg/mL; in series [1] (25 μg/ml APAP, No Preservative, −20° C., Day 240) it was 18.20 ± 0.14 µg/mL; in series [1] (25 μg/ml APAP, No Preservative, −20° C., Day 360), 24.37 ± 0.36 µg/mL. The “Saliva Stability (APAP concentration)” value in series [1] (25 μg/ml APAP, P1, RT, Day 01) is 24.94 ± 0.56 µg/mL; in series [1] (25 μg/ml APAP, P1, RT, Day 14), 24.63 ± 0.12 µg/mL; in series [1] (25 μg/ml APAP, P1, RT, Day 28), 27.3 ± 1.54 µg/mL; in series [1] (25 μg/ml APAP, P1, RT, Day 60), 29.88 ± 3.58 µg/mL; in series [1] (25 μg/ml APAP, P1, RT, Day 120), 24.20 ± 0.47 µg/mL; in series [1] (25 μg/ml APAP, P1, RT, Day 180) it was 17.55 ± 0.46 µg/mL. The “Saliva Stability (APAP concentration)” value in series [1] (25 μg/ml APAP, P1, RT, Day 240) was 17.21 ± 0.36 µg/mL; in series [1] (25 μg/ml APAP, P1, RT, Day 360), 25.70 ± 0.55 µg/mL.
As to `C[C@]12CCC(=O)C=C1CC[C@@H]1[C@@H]2[C@@H](O)C[C@@]2(C)[C@H]1CC[C@]2(O)C(=O)CO` [Cortisol, cortisol], the “storage time over which concentrations in saliva were comparable / preserved” value in series [2] stood at 180 days.
For the molecule `COc1ccc2[nH]cc(CCNC(C)=O)c2c1` [Melatonin, melatonin], the “SALIVA STABILITY OF MELATONIN” value was 31.71 ± 4.4 pg/mL in series [2] (28 day) and 29.43 ± 5.9 pg/mL in series [2] (28 days). The “storage time over which concentrations in saliva were comparable / preserved” value in series [2] worked out at 180 days.
